Assay results: patent publication US9809853B2, “Calcium-activated chloride channel involved in human sweat formation” (BRAIN Biotechnology Research and Information Network AG, priority 2012, dated 2017)

Target: T1, TMEM16A(ac) (Homo sapiens, UniProt Q5XXA6, DEL476-501)
T1 construct: expressed in transfected cells
T1 sequence (Q5XXA6 with tags, fused parts or gaps DEL476-501): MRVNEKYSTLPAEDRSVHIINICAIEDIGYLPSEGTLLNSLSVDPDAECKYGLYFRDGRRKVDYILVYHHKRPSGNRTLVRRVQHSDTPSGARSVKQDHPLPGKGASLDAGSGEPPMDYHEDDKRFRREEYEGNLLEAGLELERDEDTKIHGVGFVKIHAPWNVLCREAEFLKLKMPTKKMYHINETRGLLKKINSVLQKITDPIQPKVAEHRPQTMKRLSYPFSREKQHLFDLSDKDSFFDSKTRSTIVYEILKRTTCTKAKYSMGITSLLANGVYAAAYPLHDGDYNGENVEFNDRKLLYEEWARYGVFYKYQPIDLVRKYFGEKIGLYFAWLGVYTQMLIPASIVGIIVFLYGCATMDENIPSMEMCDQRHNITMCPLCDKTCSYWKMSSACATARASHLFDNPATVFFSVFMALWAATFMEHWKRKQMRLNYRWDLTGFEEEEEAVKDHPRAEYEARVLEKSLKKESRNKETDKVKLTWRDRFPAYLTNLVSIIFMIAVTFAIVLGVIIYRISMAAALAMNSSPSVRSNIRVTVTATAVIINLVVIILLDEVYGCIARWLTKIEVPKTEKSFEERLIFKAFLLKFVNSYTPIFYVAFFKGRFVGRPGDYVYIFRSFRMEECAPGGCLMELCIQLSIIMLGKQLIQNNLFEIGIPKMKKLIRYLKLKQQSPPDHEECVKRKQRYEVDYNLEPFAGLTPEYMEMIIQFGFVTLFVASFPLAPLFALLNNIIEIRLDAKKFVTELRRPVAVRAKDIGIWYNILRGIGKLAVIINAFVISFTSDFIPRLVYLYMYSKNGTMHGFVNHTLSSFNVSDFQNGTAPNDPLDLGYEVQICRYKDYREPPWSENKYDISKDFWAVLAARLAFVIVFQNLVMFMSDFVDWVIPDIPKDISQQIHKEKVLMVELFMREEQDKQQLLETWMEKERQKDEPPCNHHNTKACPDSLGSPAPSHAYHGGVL
Experiment: hsYFP quenching assay in NCL-SG3-hsYFP-TMEM16A(ac) cells
Format: cell-based
Details: 330 μM ATP; for Effect of pretreatment on hsYFP quenching / Ca^2+-dependent Cl^− secretion after ATP: cells overexpressing TMEM16A(ac)
Experimental: NCL-SG3-hsYFP, NCL-SG 3-hsYFP-TMEM16A(ac) and NCL-SG3-hsYFP-TMEM16A(acΔe3) cells were untreated (basal activity) or stimulated with ATP (330 μM). Quenching of hsYFP fluorescence was determined. The rate of I^− influx (sec^−1) was calculated from the initial slope of measured hsYFP fluorescence (ΔYFP fluorescence/Δtime) and is a direct measure of CaCC activity. For better comparison fold changes compared to basal activity of parental cells are shown. […] All influx rate differences are higly statistically significant, except the basal influx rate of parental and TMEM16A(ac) overexpressing NCL-SG3-hsYFP cells (Student's t-test, two-tailed; *** p-value<0.0001).
TMEM16A(ac) and TMEM16A(acΔe3) are present in human eccrine sweat glands and were therefore obtained by RT-PCR amplification using TRIzol® (Invitrogen) extracted RNA from freshly isolated human eccrine sweat glands using oligonucleotides (forward 5′-[…]; reverse 5′-[…]) SEQ ID NOS: 5 and 6 , which amplify full-length TMEM16A, and subsequently cloned into the proprietary eukaryotic gene expression plasmid (pEF1α-TMEM16A(ac) and pEF1α-TMEM16A(acΔe3), FIG. 6A). […] Both genes are coupled by an internal ribosomal entry site (IRES) to enable efficient translation of both open reading frames located on the same mRNA. […]
Taken together, NCL-SG3-hsYFP cells can be used to monitor Ca^2+-dependent Cl^− fluxes, which represent the initial step in primary sweat formation in sweat gland cells. […] Microplates were transferred into an automated fluorescence plate reader (FlexStation®, Molecular Devices) and cellular hsYFP fluorescence was continuously recorded every 3.5 sec until end of the experiment (excitation at 485 nm, emission at 535 nm, cutoff 515 nm). […] NCL-SG3-hsYFP cells allow quantitative evaluation of in vivo Cl^− channel activity (FIGS. 9 and 10D). To determine the exact rate of Cl^− efflux/I^− influx the hsYFP fluorescence was plotted against time (ΔYFP fluorescence/Δtime). […]

Compound | ATP-induced activity (I^− influx rate, fold) (TMEM16A(ac) overexpressing cells) | Effect of pretreatment on hsYFP quenching / Ca^2+-dependent Cl^− secretion after ATP | Effect of pretreatment on hsYFP quenching / Ca^2+-dependent Cl^− secretion after ATP (listed as tannic acid)
Nc1ncnc2c1ncn2[C@@H]1O[C@H](COP(=O)(O)OP(=O)(O)OP(=O)(O)O)[C@@H](O)[C@H]1O [ATP] | 10 fold |  | 
O=C(OC[C@H]1O[C@@H](OC(=O)c2cc(O)c(O)c(OC(=O)c3cc(O)c(O)c(O)c3)c2)[C@H](OC(=O)c2cc(O)c(O)c(OC(=O)c3cc(O)c(O)c(O)c3)c2)[C@@H](OC(=O)c2cc(O)c(O)c(OC(=O)c3cc(O)c(O)c(O)c3)c2)[C@@H]1OC(=O)c1cc(O)c(O)c(OC(=O)c2cc(O)c(O)c(O)c2)c1)c1cc(O)c(O)c(OC(=O)c2cc(O)c(O)c(O)c2)c1 [TA, tannic acid] |  | significant reduction of hsYFP quenching | inhibited
